Data on one substance can be found in patent US11534457B2, “Use of dextran sulfate” (priority 2017, dated 2022).

Assay [1] deals with 4H system [HUVEC+(IL-4 and histamine)]. Description: BioMAP 4H system. The assay is classed as cell-based, Human. The text has this: (§1) In this study LMW-DS was characterized by profiling in the BioMAP® Diversity PLUS panel. The BioMAP® panel consists of human primary cell-based systems designed to model different aspects of the human body in an in vitro format. The 12 systems in the BioMAP® Diversity PLUS panel (Table 32) allow test agent characterization in an unbiased way across a broad set of systems modeling various human disease states. The BioMA®P systems are constructed with one or more primary cell types from healthy human donors, with stimuli, such as cytokines or growth factors, added to capture relevant signaling networks that naturally occur in human tissue or pathological conditions. […]
Systems are derived from either single cell types or co-culture systems. […] Test agents prepared in either DMSO (small molecules; final concentration 0.1%) or PBS (biologics) are added at the indicated concentrations 1-hr before stimulation, and remain in culture for 24-hrs or as otherwise indicated (48-hrs, MyoF system; 72-hrs, BT system (soluble readouts); 168-hrs, BT system (secreted IgG)). […] Soluble factors from supernatants are quantified using either HTRF® detection, bead-based multiplex immunoassay or capture ELISA. Overt adverse effects of test agents on cell proliferation and viability (cytotoxicity) are detected by sulforhodamine B (SRB) staining, for adherent cells, and alamarBlue® reduction for cells in suspension. […]

Assay [2] deals with /Mphg system [HUVEC and M1 macrophages+Zymosan (TLR2 ligand)]. Description: BioMAP /Mphg system. It counts as cell-based, Human.
Description: as §1, with “conditions. Vascular biology is modeled in both a Th1 (3C system) and a Th2 (4H system) inflammatory environment, as well as in a Th1 inflammatory state specific to arterial smooth muscle cells (CASM3C system).” for “conditions.”
Systems are derived from either single cell types or co-culture systems. […] Test agents prepared in either DMSO (small molecules; final concentration 0.1%) or PBS (biologics) are added at the indicated concentrations 1-hr before stimulation, and remain in culture for 24-hrs or as otherwise indicated (48-hrs, MyoF system; 72-hrs, BT system (soluble readouts); 168-hrs, BT system (secreted IgG)). […]

Turning to “low molecular weight dextran sulfate [LMW-DS]”, the Increased biomarker activity result in assay [1] is given as “uPAR”; in assay [2], “IL-8, CD69”.
